{
  "source": "patent US9580487B2",
  "about": "“Method of treating stomach or bowel-related disorders by administering glucagon-like-peptide-2 (GLP-2) analogues” (Zealand Pharma A/S, priority 2005, dated 2017)",
  "key": {"male C57BL mice [1]": {"test_system": "male C57BL mice", "experiment": "Screening for intestinal growth effects (small intestine and colon mass relative to body weight, small intestine-colon sensitivity index)", "assay_type": "in vivo", "settings": "for Small intestine mass relative to [Gly2]GLP-2 / Preferential growth of small intestine versus colon (small intestine-colon sensitivity): 30 nmol/kg s.c. twice daily, ten days; for Small intestine mass relative to [Gly2]GLP-2: equimolar [Gly2]GLP-2; for Preferential growth of small intestine versus colon (small intestine-colon sensitivity): relative to [Gly2]GLP-2; for colon mass relative to body weight, % [Gly2]GLP-2 / small intestine-colon sensitivity index, (SI/Colon)X/(SI/Colon)[Gly2]GLP-2 %: male C57BL mice, 30 nmol/kg s.c. twice daily for ten days; for small intestine-colon sensitivity index, (SI/Colon)X/(SI/Colon)[Gly2]GLP-2 %: third value column", "method_in_brief": "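Groups of six mice were dosed s.c. at 30 nmol/kg twice daily for ten days, with vehicle (PBS, pH 7.4) or equimolar [Gly2]GLP-2 as comparators. The sensitivity index was (SI/Colon) of the compound over that of [Gly2]GLP-2, with ≥1.05 counted as small-intestine-selective and ≤0.95 as colon-selective.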"}, "male C57BL mice [2]": {"test_system": "male C57BL mice", "experiment": "Dose-response effect on intestinal growth (SI mass, SI-Colon Sensitivity Index, colon and stomach mass)", "assay_type": "in vivo", "settings": "5-405 nmol/kg s.c. b.i.d. for three days", "protocol": "Values are means±SEM. *: P<0.05 relative to the equimolar dose of [Gly2]GLP-2 (SEQ ID NO:54).\nFIG. 2 is a set of graphs showing full dose-response data of four small intestine selective compounds (compound nos. 1846 (SEQ ID NO:34), 1855 (SEQ ID NO:43), 1848 (SEQ ID NO:36), 1858 (SEQ ID NO:46)) on the Small Intestine (SI)-to-Colon Sensitivity Index mice relative to the non-selective reference compound [Gly2]GLP-2 (SEQ ID NO:54). Compounds were administered by subcutaneous injection b.i.d. for three days in C57BL mice at the following doses: 0 (vehicle), 5, 15, 45, 135, 405 nmol/kg (n=6/dose group). Responses at each dose level were compared with responses obtained at the same dose level in pair-treated mice treated with the non-selective reference compound [Gly2]GLP-2 (SEQ ID NO:54). The SI-Colon Sensitivity Index was calculated as SI-mass relative to colon mass and the Sensitivity Index at each dose level was normalized to the response observed with the non-selective reference compound [Gly2]GLP-2 (SEQ ID NO:54). […] Values are means±SEM. *: P<0.05 relative to the equimolar dose of [Gly2]GLP-2.\nFIG. 4 is a set of graphs showing full dose-response data of three small intestine selective compounds (compound nos. 1857 (SEQ ID NO:45), 1820 (SEQ ID NO:10), and 1849 (SEQ ID NO:37)) on the Small Intestine (SI)-to-Colon Sensitivity Index mice relative to the non-selective reference compound [Gly2]GLP-2 (SEQ ID NO:54). Compounds were administered by subcutaneous injection b.i.d. for three days in C57BL mice at the following doses: 0 (vehicle), 5, 15, 45, 135, 405 nmol/kg (n=6/dose group). Responses at each dose level were compared with responses obtained at the same dose level in pair-treated mice treated with the non-selective reference compound [Gly2]GLP-2 (SEQ ID NO:54). The SI-Colon Sensitivity Index was calculated as SI-mass relative to colon mass and the Sensitivity Index at each dose level was normalized to the response observed with the non-selective reference compound [Gly2]GLP-2 (SEQ ID NO:54). […] Values are means±SEM. *: P<0.05 relative to the equimolar dose of [Gly2]GLP-2 (SEQ ID NO:54).\nCompounds were administered by subcutaneous injection b.i.d. for three days in C57BL mice at the following doses: 0 (vehicle), 5, 15, 45, 135, 405 nmol/kg (n=6/dose group). […] Values are means±SEM. *: P<0.05 relative to the vehicle.\nThe dose-response effect of 1820 (SEQ ID NO:10), 1855 (SEQ ID NO:43), ZP1846 (SEQ ID NO:34), 1858 (SEQ ID NO:46), 1849 (SEQ ID NO:37), 1848 (SEQ ID NO:36), and 1857 (SEQ ID NO:45) on small intestinal mass was determined in male C57BL mice. Individual groups (n=6) of mice were given 5, 15, 45, 135 or 405 nmol/kg of each compound, s.c, twice daily for three consecutive days. For comparison purposes other groups of animals were given either equimolar doses of [Gly2]GLP-2 (SEQ ID NO:54) or vehicle (phosphate buffered saline, pH 7.4) in the same dosing regimen. Twenty-four hours after the last dose of compound had been given the mice were sacrificed and the small intestine (from the pylorus to the cecum emptied and weighed to determine the effect on small intestinal mass."}},
  "note": "“Also recorded” adds a separate entry of the source. No end group written: not given here.",
  "data": [
    {"substance": "[Gly2, Glu3, Leu10, Ser11, Ala16,24,28]hGLP-2(1-33)-NH2 [Compound 1857]", "values": [
      {"measurement": "Small intestine mass relative to [Gly2]GLP-2", "setting": "male C57BL mice [1]", "result": "increased small intestine mass relative to [Gly2]GLP-2"},
      {"measurement": "Preferential growth of small intestine versus colon (small intestine-colon sensitivity)", "setting": "male C57BL mice [1]", "result": "preferentially stimulating epithelial growth in the small intestine"},
      {"measurement": "colon mass relative to body weight, % [Gly2]GLP-2", "setting": "male C57BL mice [1]", "result": "90 % [Gly2]GLP-2"},
      {"measurement": "small intestine-colon sensitivity index, (SI/Colon)X/(SI/Colon)[Gly2]GLP-2 %", "setting": "male C57BL mice [1]", "result": "130 % [Gly2]GLP-2"},
      {"measurement": "SI-Colon Sensitivity Index (SI mass relative to colon mass) relative to [Gly2]GLP-2", "setting": "male C57BL mice [2]", "result": "increased maximal small intestinal sensitivity relative to [Gly2]GLP-2; also recorded: increased selectivity for causing growth of the small intestine relative to the colon"},
      {"measurement": "Small intestinal mass (SI-BW ratio), maximal response relative to [Gly2]GLP-2", "setting": "male C57BL mice [2]", "result": "maximal responses that were significantly greater than [Gly2]GLP-2"}
    ]},
    {"substance": "[Gly2, Glu3, Ser8,11, Leu10, Ala16,24,28]hGLP-2(1-33)-(Lys)6-NH2 (HGEGSFSSELSTILDALAARDFIAWLIATKITDKKKKKK-NH2) [Compound 1846]", "values": [
      {"measurement": "Small intestine mass relative to [Gly2]GLP-2", "setting": "male C57BL mice [1]", "result": "increased small intestine mass relative to [Gly2]GLP-2"},
      {"measurement": "Preferential growth of small intestine versus colon (small intestine-colon sensitivity)", "setting": "male C57BL mice [1]", "result": "supplementary increase in the weight of the small intestine without significant effecting the weight of the colon; also recorded: preferentially stimulating epithelial growth in the small intestine"},
      {"measurement": "colon mass relative to body weight, % [Gly2]GLP-2", "setting": "male C57BL mice [1]", "result": "102 % [Gly2]GLP-2"},
      {"measurement": "small intestine-colon sensitivity index, (SI/Colon)X/(SI/Colon)[Gly2]GLP-2 %", "setting": "male C57BL mice [1]", "result": "118 % [Gly2]GLP-2"},
      {"measurement": "SI-Colon Sensitivity Index (SI mass relative to colon mass) relative to [Gly2]GLP-2", "setting": "male C57BL mice [2]", "result": "increased maximal small intestinal sensitivity relative to [Gly2]GLP-2; also recorded: increased selectivity for causing growth of the small intestine relative to the colon"},
      {"measurement": "Small intestinal mass (SI-BW ratio), maximal response relative to [Gly2]GLP-2", "setting": "male C57BL mice [2]", "result": "maximal responses that were significant greater than [Gly2]GLP-2"}
    ]},
    {"substance": "[Gly2, Glu3, Thr5, Ser8, Leu10, Ala11,16,24,28]hGLP-2(1-33)-(Lys)6-NH2 (HGEGTFSSELATILDALAARDFIAWLIATKITDKKKKKK-NH2) [Compound 1848]", "values": [
      {"measurement": "Small intestine mass relative to [Gly2]GLP-2", "setting": "male C57BL mice [1]", "result": "increased small intestine mass relative to [Gly2]GLP-2"},
      {"measurement": "Preferential growth of small intestine versus colon (small intestine-colon sensitivity)", "setting": "male C57BL mice [1]", "result": "supplementary increase in the weight of the small intestine without significant effecting the weight of the colon; also recorded: preferentially stimulating epithelial growth in the small intestine"},
      {"measurement": "colon mass relative to body weight, % [Gly2]GLP-2", "setting": "male C57BL mice [1]", "result": "93 % [Gly2]GLP-2"},
      {"measurement": "small intestine-colon sensitivity index, (SI/Colon)X/(SI/Colon)[Gly2]GLP-2 %", "setting": "male C57BL mice [1]", "result": "117 % [Gly2]GLP-2"},
      {"measurement": "SI-Colon Sensitivity Index (SI mass relative to colon mass) relative to [Gly2]GLP-2", "setting": "male C57BL mice [2]", "result": "increased maximal small intestinal sensitivity relative to [Gly2]GLP-2; also recorded: increased selectivity for causing growth of the small intestine relative to the colon"},
      {"measurement": "Small intestinal mass (SI-BW ratio), maximal response relative to [Gly2]GLP-2", "setting": "male C57BL mice [2]", "result": "maximal responses that were significant greater than [Gly2]GLP-2"},
      {"measurement": "Growth stimulation of small intestine, colon and stomach mass", "setting": "male C57BL mice [2]; vs vehicle", "result": "only produced dose-dependent growth stimulation in the small intestine"}
    ]},
    {"substance": "[Gly2, Glu3, Thr5, Ser8, Leu10, Ala11,16,24,28]hGLP-2(1-33)-NH2 [Compound 1855]", "values": [
      {"measurement": "Small intestine mass relative to [Gly2]GLP-2", "setting": "male C57BL mice [1]", "result": "increased small intestine mass relative to [Gly2]GLP-2"},
      {"measurement": "Preferential growth of small intestine versus colon (small intestine-colon sensitivity)", "setting": "male C57BL mice [1]", "result": "supplementary increase in the weight of the small intestine without significant effecting the weight of the colon; also recorded: preferentially stimulating epithelial growth in the small intestine"},
      {"measurement": "colon mass relative to body weight, % [Gly2]GLP-2", "setting": "male C57BL mice [1]", "result": "88 % [Gly2]GLP-2"},
      {"measurement": "small intestine-colon sensitivity index, (SI/Colon)X/(SI/Colon)[Gly2]GLP-2 %", "setting": "male C57BL mice [1]", "result": "120 % [Gly2]GLP-2"},
      {"measurement": "SI-Colon Sensitivity Index (SI mass relative to colon mass) relative to [Gly2]GLP-2", "setting": "male C57BL mice [2]", "result": "increased maximal small intestinal sensitivity relative to [Gly2]GLP-2; also recorded: increased selectivity for causing growth of the small intestine relative to the colon"},
      {"measurement": "Small intestinal mass (SI-BW ratio), maximal response relative to [Gly2]GLP-2", "setting": "male C57BL mice [2]", "result": "maximal responses that were significant greater than [Gly2]GLP-2"}
    ]}
  ]
}
